Results as given in PubChem BioAssay AID1845219 (Molecular Pharmacology Branch, DTP, NCI, 2023).

Test system: SYO-1 tumor spheroids, viability % test/control
Test: Anticancer human tumor SYO-1 cell line growth inhibition;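 further: spheroids exposed to agents for 7 days before viability read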;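 on viability, T/C: 100% = DMSO vehicle control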
Conditions: spheroids with HUVEC and MSC; for IC50: curve of first compound; for viability, T/C: stronger effect = lower value
Summary of the method: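 Complex spheroids of malignant cells with endothelial cells and mesenchymal stem cells; agents alone or combined, from near clinical Cmax (or 10 microM if unknown) down in half-log steps, 0.25% DMSO final.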

[1] = second compound 1 µM, first compound 0.00949 µM
[2] = second compound 1 µM, first compound 0.03 µM
[3] = second compound 1 µM, first compound 0.0949 µM
[4] = second compound 1 µM, first compound 0.3 µM
[5] = second compound 1 µM, first compound 0.949 µM
[6] = second compound 1 µM, first compound 3 µM
[7] = second compound 3.16 µM, first compound 0.00949 µM
[8] = second compound 3.16 µM, first compound 0.03 µM
[9] = second compound 3.16 µM, first compound 0.0949 µM
[10] = second compound 3.16 µM, first compound 0.3 µM
[11] = second compound 3.16 µM, first compound 0.949 µM
[12] = second compound 3.16 µM, first compound 3 µM
[13] = second compound 10 µM, first compound 0.00949 µM
[14] = second compound 10 µM, first compound 0.03 µM
[15] = second compound 10 µM, first compound 0.0949 µM
[16] = second compound 10 µM, first compound 0.3 µM
[17] = second compound 10 µM, first compound 0.949 µM
[18] = second compound 10 µM, first compound 3 µM
[19] = second compound 31.6 µM, first compound 0.00949 µM
[20] = second compound 31.6 µM, first compound 0.03 µM
[21] = second compound 31.6 µM, first compound 0.0949 µM
[22] = second compound 31.6 µM, first compound 0.3 µM
[23] = second compound 31.6 µM, first compound 0.949 µM
[24] = second compound 31.6 µM, first compound 3 µM
[25] = second compound 100 µM, first compound 0.00949 µM
[26] = second compound 100 µM, first compound 0.03 µM
[27] = second compound 100 µM, first compound 0.0949 µM
[28] = second compound 100 µM, first compound 0.3 µM
[29] = second compound 100 µM, first compound 0.949 µM
[30] = second compound 100 µM, first compound 3 µM

| SMILES | IC50 (second compound 1 µM) [µM] | IC50 (second compound 3.16 µM) [µM] | IC50 (second compound 10 µM) [µM] | IC50 (second compound 31.6 µM) [µM] | IC50 (second compound 100 µM) [µM] | viability, T/C [3] [%] | viability, T/C [4] [%] | viability, T/C [5] [%] | viability, T/C [6] [%] | viability, T/C [9] [%] | viability, T/C [10] [%] | viability, T/C [11] [%] | viability, T/C [12] [%] | viability, T/C [15] [%] | viability, T/C [16] [%] | viability, T/C [17] [%] | viability, T/C [18] [%] | viability, T/C [21] [%] | viability, T/C [22] [%] | viability, T/C [23] [%] | further results |
| --- | --- | --- | --- | --- | --- | --- | --- | --- | --- | --- | --- | --- | --- | --- | --- | --- | --- | --- | --- | --- | --- |
| CNCc1ccc(-c2cc(-c3nc(-c4ccc(S(=O)(=O)C(C)C)cc4)cnc3N)on2)cc1 + Cn1nnc2c(C(N)=O)ncn2c1=O | 0.145 | 0.163 | 0.147 | 0.0808 | 0.0476 | 77.6 | 2.58 | 0.22 | 0.09 | 91.6 | 2.75 | 0.12 | 0.09 | 79.6 | 1.77 | 0.13 | 0.1 | 40.9 | 1.76 | 0.23 | viability, T/C [1]: 105%; viability, T/C [2]: 98.7%; viability, T/C [7]: 105%; viability, T/C [8]: 103%; viability, T/C [13]: 107%; viability, T/C [14]: 99%; viability, T/C [19]: 111%; viability, T/C [20]: 106%; viability, T/C [24]: 0.11%; viability, T/C [25]: 107%; viability, T/C [26]: 77.2%; viability, T/C [27]: 9.17%; viability, T/C [28]: 1.95%; viability, T/C [29]: 0.23%; viability, T/C [30]: 0.18% |
| Cc1sc2c(c1C)C(c1ccc(Cl)cc1)=NC(CC(=O)Nc1ccc(O)cc1)c1nnc(C)n1-2 (stereo not given) + Cn1nnc2c(C(N)=O)ncn2c1=O | 0.0642 | 0.0632 | 0.0592 | 0.0535 | 0.0261 | 29.7 | 1.14 | 0.56 | 0.57 | 28.6 | 1.02 | 0.71 | 0.61 | 21.4 | 1.06 | 0.76 | 0.54 | 15.5 | 1.03 | 0.85 | viability, T/C [1]: 93.6%; viability, T/C [2]: 89.6%; viability, T/C [7]: 93.6%; viability, T/C [8]: 89.3%; viability, T/C [13]: 94.3%; viability, T/C [14]: 91.3%; viability, T/C [19]: 101%; viability, T/C [20]: 84.8%; viability, T/C [24]: 0.62%; viability, T/C [25]: 91.8%; viability, T/C [26]: 44.3%; viability, T/C [27]: 1.77%; viability, T/C [28]: 1.29%; viability, T/C [29]: 0.88%; viability, T/C [30]: 0.73% |
| Cn1ncnc1[C@H]1c2n[nH]c(=O)c3cc(F)cc(c23)N[C@@H]1c1ccc(F)cc1 + Cn1nnc2c(C(N)=O)ncn2c1=O | 0.0163 | 0.0128 | < 0.00949 | < 0.00949 | < 0.00949 | 4.52 | 2.53 | 1.69 | 1.94 | 2.83 | 2.28 | 2.09 | 1.5 | 2.35 | 1.79 | 1.63 | 2.1 | 2.35 | 1.86 | 2 | viability, T/C [1]: 79.6%; viability, T/C [2]: 16.8%; viability, T/C [7]: 65%; viability, T/C [8]: 7.02%; viability, T/C [13]: 4.61%; viability, T/C [14]: 2.33%; viability, T/C [19]: 2.52%; viability, T/C [20]: 2.5%; viability, T/C [24]: 1.4%; viability, T/C [25]: 2.64%; viability, T/C [26]: 2.03%; viability, T/C [27]: 2.06%; viability, T/C [28]: 2.04%; viability, T/C [29]: 1.62%; viability, T/C [30]: 1.71% |
| O=C(c1cc(Cc2n[nH]c(=O)c3ccccc23)ccc1F)N1CCN(C(=O)C2CC2)CC1 + Cn1nnc2c(C(N)=O)ncn2c1=O | 1.66 | 1.62 | 0.677 | 0.155 | < 0.0949 | 103 | 96.2 | 88.9 | 9.23 | 103 | 94.3 | 88.4 | 6.01 | 103 | 94.6 | 31.6 | 2.83 | 76.8 | 13.5 | 3.35 | viability, T/C (second compound 1 µM, first compound 9.49 µM): 2.81%; viability, T/C (second compound 1 µM, first compound 30 µM): 1.98%; viability, T/C (second compound 3.16 µM, first compound 9.49 µM): 2.08%; viability, T/C (second compound 3.16 µM, first compound 30 µM): 1.94%; viability, T/C (second compound 10 µM, first compound 9.49 µM): 1.83%; viability, T/C (second compound 10 µM, first compound 30 µM): 1.82%; viability, T/C [24]: 2.28%; viability, T/C (second compound 31.6 µM, first compound 9.49 µM): 2.18%; viability, T/C (second compound 31.6 µM, first compound 30 µM): 1.77%; viability, T/C [27]: 3.25%; viability, T/C [28]: 2.69%; viability, T/C [29]: 2.42%; viability, T/C [30]: 2.49%; viability, T/C (second compound 100 µM, first compound 9.49 µM): 1.81%; viability, T/C (second compound 100 µM, first compound 30 µM): 1.75% |
